Experimental data reported in publication PMC11012124, “Synthesis of Novel Triazine-Based Chalcones and 8,9-dihydro-7H-pyrimido[4,5-b][1,4]diazepines as Potential Leads in the Search of Anticancer, Antibacterial and Antifungal Agents” (International Journal of Molecular Sciences, 2024).

Assays:
60 cancer cell lines = assay: NCI-60 one-dose screen (10 μM); type: cell-based; details: Homo sapiens; one dose of 10 μM, mean over 60 cancer cell lines; read-out: Mean Growth Percent (MGP)
From the text: Additionally, the mean of the growth percentages (MGP) of each compound against all the 60 cancer cell lines is also reported, which is used as one of the selection criteria to continue with tests at five concentration doses.

CCRF-CEM = assay: cells; details: Homo sapiens, 48 h; for CC50: read-out: LC50
HL-60(TB) = assay: cells; details: Homo sapiens, HL-60, 48 h; for CC50: read-out: LC50
MOLT-4 = assay: cells; details: Homo sapiens, MOLT-4, 48 h; for CC50: read-out: LC50
RPMI-8226 = assay: cells; details: Homo sapiens, RPMI-8226, 48 h; for CC50: read-out: LC50
EKVX = assay: cells; details: Homo sapiens, 48 h; for CC50: read-out: LC50
HOP-62 = assay: cells; details: Homo sapiens, HOP-62, 48 h; for CC50: read-out: LC50
NCI-H226 = assay: cells; details: Homo sapiens, NCI-H226, 48 h; for CC50: read-out: LC50
NCI-H322M = assay: cells; details: Homo sapiens, 48 h; for CC50: read-out: LC50
COLO 205 = assay: cells; details: Homo sapiens, COLO 205, 48 h; for CC50: read-out: LC50
HCT-116 = assay: cells; details: Homo sapiens, HCT-116, 48 h; for CC50: read-out: LC50
HT29 = assay: cells; details: Homo sapiens, HT-29, 48 h; for CC50: read-out: LC50
SF-268 = assay: cells; details: Homo sapiens, SF-268, 48 h; for CC50: read-out: LC50
SF-295 = assay: cells; details: Homo sapiens, SF-295, 48 h; for CC50: read-out: LC50
SF-539 = assay: cells; details: Homo sapiens, SF-539, 48 h; for CC50: read-out: LC50, SF-539, 48 h
U251 = assay: cells; details: Homo sapiens, U-251, 48 h; for GI50: U251, 48 h; for CC50: read-out: LC50
LOX IMVI = assay: cells; details: Homo sapiens, 48 h; for CC50: read-out: LC50, LOX IMVI, 48 h
MALME-3M = assay: cells; details: Homo sapiens, 48 h; for CC50: read-out: LC50
M14 = assay: cells; details: Homo sapiens, M14, 48 h; for CC50: read-out: LC50
MDA-MB-435 = assay: cells; details: Homo sapiens, MDA-MB-435, 48 h; for CC50: read-out: LC50
UACC-257 = assay: cells; details: Homo sapiens, UACC-257, 48 h; for CC50: read-out: LC50
UACC-62 = assay: cells; details: Homo sapiens, UACC-62, 48 h; for CC50: read-out: LC50
OVCAR-3 = assay: cells; details: Homo sapiens, OVCAR-3, 48 h; for CC50: read-out: LC50
OVCAR-4 = assay: cells; details: Homo sapiens, OVCAR-4, 48 h; for CC50: read-out: LC50
OVCAR-5 = assay: cells; details: Homo sapiens, OVCAR-5, 48 h; for CC50: read-out: LC50
OVCAR-8 = assay: cells; details: Homo sapiens, OVCAR-8, 48 h; for CC50: read-out: LC50
A498 = assay: cells; details: Homo sapiens, A498, 48 h; for CC50: read-out: LC50
ACHN = assay: cells; details: Homo sapiens, 48 h; for CC50: read-out: LC50
SN12C = assay: cells; details: Homo sapiens, 48 h; for CC50: read-out: LC50
UO-31 = assay: cells; details: Homo sapiens, UO-31, 48 h; for CC50: read-out: LC50
PC-3 = assay: cells; details: Homo sapiens, PC-3, 48 h; for CC50: read-out: LC50
DU-145 = assay: cells; details: Homo sapiens, DU-145, 48 h; for CC50: read-out: LC50
MCF7 = assay: cells; details: Homo sapiens, MCF7, 48 h; for CC50: read-out: LC50
MDA-MB-231/ATCC = assay: cells; details: Homo sapiens, MDA-MB-231, 48 h; for CC50: read-out: LC50
HS 578T = assay: cells; details: Homo sapiens, 48 h; for CC50: read-out: LC50
BT-549 = assay: cells; details: Homo sapiens, BT-549, 48 h; for CC50: read-out: LC50
T-47D = assay: cells; details: Homo sapiens, T47D, 48 h; for CC50: read-out: LC50

## CN(C)c1nc(NCCNS(=O)(=O)c2ccc(C(=O)/C=C/c3ccc(F)cc3)cc2)nc(N2CCOCC2)n1 [23f]
60 cancer cell lines
  activity at 10 µM: 27.6%
CCRF-CEM
  GI50: 6.58 µM
  CC50: > 100 µM
HL-60(TB)
  GI50: 14.7 µM
  CC50: > 100 µM
MOLT-4
  GI50: 4.69 µM
  CC50: > 100 µM
RPMI-8226
  GI50: 1.91 µM
  CC50: > 100 µM
EKVX
  GI50: 14.4 µM
  CC50: 53.8 µM
HOP-62
  GI50: 16.1 µM
  CC50: 61.8 µM
NCI-H226
  GI50: 12.3 µM
  CC50: 64.7 µM
NCI-H322M
  GI50: 13.2 µM
  CC50: 50.9 µM
COLO 205
  GI50: 14.6 µM
  CC50: 62.4 µM
HCT-116
  GI50: 2.29 µM
  CC50: 16.8 µM
HT29
  GI50: 2.84 µM
  CC50: 32.3 µM
SF-268
  GI50: 15 µM
  CC50: 94 µM
SF-295
  GI50: 11.3 µM
  CC50: 50.1 µM
SF-539
  GI50: 13.2 µM
  CC50: 51.1 µM
U251
  GI50: 4.74 µM
  CC50: 41.5 µM
LOX IMVI
  GI50: 1.63 µM
  CC50: 6.19 µM
MALME-3M
  GI50: 14.6 µM
  CC50: 54.4 µM
M14
  GI50: 15 µM
  CC50: 62.2 µM
MDA-MB-435
  GI50: 11.6 µM
  CC50: 51.9 µM
UACC-257
  GI50: 15.5 µM
  CC50: 54.9 µM
UACC-62
  GI50: 10.8 µM
  CC50: 49.1 µM
OVCAR-3
  GI50: 14.6 µM
  CC50: 55.7 µM
OVCAR-4
  GI50: 11.9 µM
  CC50: 51.1 µM
OVCAR-5
  GI50: 13.6 µM
  CC50: 52.6 µM
OVCAR-8
  GI50: 14.7 µM
  CC50: 54 µM
A498
  GI50: 11.9 µM
  CC50: 49.9 µM
ACHN
  GI50: 13.1 µM
  CC50: 51.4 µM
SN12C
  GI50: 12 µM
  CC50: 50 µM
UO-31
  GI50: 11 µM
  CC50: 47.9 µM
PC-3
  GI50: 11.2 µM
  CC50: 58.5 µM
DU-145
  GI50: 14.4 µM
  CC50: 53.8 µM
MCF7
  GI50: 2.99 µM
  CC50: 46.7 µM
MDA-MB-231/ATCC
  GI50: 12.3 µM
  CC50: 51.8 µM
HS 578T
  GI50: 14.6 µM
  CC50: > 100 µM
BT-549
  GI50: 15.1 µM
  CC50: 56.7 µM
T-47D
  GI50: 11.9 µM
  CC50: 94.2 µM

## CN(C)c1nc(NCCNS(=O)(=O)c2ccc(C(=O)/C=C/c3ccc(C(F)(F)F)cc3)cc2)nc(N2CCOCC2)n1 [23g]
60 cancer cell lines
  activity at 10 µM: -14.8%
CCRF-CEM
  GI50: 3.2 µM
  CC50: > 100 µM
HL-60(TB)
  GI50: 5.12 µM
  CC50: > 100 µM
MOLT-4
  GI50: 3.48 µM
  CC50: > 100 µM
RPMI-8226
  GI50: 1.77 µM
  CC50: > 100 µM
EKVX
  GI50: 14.3 µM
  CC50: 52.5 µM
HOP-62
  GI50: 17 µM
  CC50: 61.3 µM
NCI-H226
  GI50: 16.1 µM
  CC50: 78.9 µM
NCI-H322M
  GI50: 14.2 µM
  CC50: 52.1 µM
COLO 205
  GI50: 15 µM
  CC50: 69.8 µM
HCT-116
  GI50: 3.19 µM
  CC50: 33.5 µM
HT29
  GI50: 2.06 µM
  CC50: 9.88 µM
SF-268
  GI50: 16.3 µM
  CC50: 87.9 µM
SF-295
  GI50: 8.11 µM
  CC50: 45.4 µM
SF-539
  GI50: 13 µM
  CC50: 50.7 µM
U251
  GI50: 2.95 µM
  CC50: 40.7 µM
LOX IMVI
  GI50: 1.68 µM
  CC50: 5.94 µM
MALME-3M
  GI50: 14.4 µM
  CC50: 53 µM
M14
  GI50: 9.83 µM
  CC50: 49.5 µM
MDA-MB-435
  GI50: 10.3 µM
  CC50: 51.1 µM
UACC-257
  GI50: 15.3 µM
  CC50: 56.5 µM
UACC-62
  GI50: 11.2 µM
  CC50: 48.5 µM
OVCAR-3
  GI50: 16.4 µM
  CC50: 57.3 µM
OVCAR-4
  GI50: 14.8 µM
  CC50: 56.5 µM
OVCAR-5
  GI50: 14.5 µM
  CC50: 53 µM
OVCAR-8
  GI50: 14.4 µM
  CC50: 54.9 µM
A498
  GI50: 13.3 µM
  CC50: 53 µM
ACHN
  GI50: 8.6 µM
  CC50: 45.5 µM
SN12C
  GI50: 12.5 µM
  CC50: 50 µM
UO-31
  GI50: 11.9 µM
  CC50: 49.2 µM
PC-3
  GI50: 10.8 µM
  CC50: 60 µM
DU-145
  GI50: 15.4 µM
  CC50: 54.5 µM
MCF7
  GI50: 1.68 µM
  CC50: 6.63 µM
MDA-MB-231/ATCC
  GI50: 11.7 µM
  CC50: 50.3 µM
HS 578T
  GI50: 17.8 µM
  CC50: > 100 µM
BT-549
  GI50: 15.6 µM
  CC50: 54.9 µM
T-47D
  GI50: 5.5 µM
  CC50: > 100 µM

## CN(C)c1nc(NCCNS(=O)(=O)c2ccc(C(=O)/C=C/c3ccc(Cl)cc3)cc2)nc(N2CCOCC2)n1 [23e]
60 cancer cell lines
  activity at 10 µM: 6.74%
CCRF-CEM
  GI50: 6.86 µM
  CC50: > 100 µM
HL-60(TB)
  GI50: 14.7 µM
  CC50: > 100 µM
MOLT-4
  GI50: 3.38 µM
  CC50: > 100 µM
RPMI-8226
  GI50: 2.55 µM
  CC50: > 100 µM
EKVX
  GI50: 14.8 µM
  CC50: 55.7 µM
HOP-62
  GI50: 17.5 µM
  CC50: 65.8 µM
NCI-H226
  GI50: 15.7 µM
  CC50: 73.8 µM
NCI-H322M
  GI50: 14.4 µM
  CC50: 52.4 µM
COLO 205
  GI50: 16.7 µM
  CC50: 70.8 µM
HCT-116
  GI50: 11.7 µM
  CC50: 50.7 µM
HT29
  GI50: 3.21 µM
  CC50: 36.4 µM
SF-268
  GI50: 17.7 µM
  CC50: > 100 µM
SF-295
  GI50: 13.3 µM
  CC50: 52.8 µM
SF-539
  GI50: 14.7 µM
  CC50: 52.9 µM
U251
  GI50: 8.16 µM
  CC50: 45.9 µM
LOX IMVI
  GI50: 1.71 µM
  CC50: 6.13 µM
MALME-3M
  GI50: 15.1 µM
  CC50: 54.2 µM
M14
  GI50: 14.1 µM
  CC50: 56.9 µM
MDA-MB-435
  GI50: 12.8 µM
  CC50: 55.3 µM
UACC-257
  GI50: 16.2 µM
  CC50: 55.7 µM
UACC-62
  GI50: 11.4 µM
  CC50: 49.1 µM
OVCAR-3
  GI50: 17.9 µM
  CC50: 70.5 µM
OVCAR-4
  GI50: 14.7 µM
  CC50: 57.2 µM
OVCAR-5
  GI50: 15 µM
  CC50: 53.9 µM
OVCAR-8
  GI50: 14.8 µM
  CC50: 54.5 µM
A498
  GI50: 12.4 µM
  CC50: 50.8 µM
ACHN
  GI50: 13.5 µM
  CC50: 51.3 µM
SN12C
  GI50: 14.4 µM
  CC50: 53.8 µM
UO-31
  GI50: 11.4 µM
  CC50: 48.4 µM
PC-3
  GI50: 13 µM
  CC50: 67 µM
DU-145
  GI50: 17.2 µM
  CC50: 67.3 µM
MCF7
  GI50: 2.37 µM
  CC50: 34.6 µM
MDA-MB-231/ATCC
  GI50: 13.3 µM
  CC50: 52.7 µM
HS 578T
  GI50: 15.8 µM
  CC50: > 100 µM
BT-549
  GI50: 15.3 µM
  CC50: 56 µM
T-47D
  GI50: 16.7 µM
  CC50: > 100 µM
